Experimental findings from US10829473B2, “Modulators of the cystic fibrosis transmembrane conductance regulator protein and methods of use” (AbbVie Overseas S.Á.R.L., priority 2017, dated 2020) are described below.

Each structure is given as a SMILES string. Where two headings read alike, the source gives them in different places. Marks after values point to notes of the source that are not given here.

Usually EC50 stands for the concentration needed to bring the measured effect to its halfway point.

This experiment deals with T1, F508delCFTR (Homo sapiens, UniProt P13569, DEL508-508).
T1 construct: expressed in transfected cells; host or cells: CFBE41o- human lung derived epithelial cells (CFBE41o-F508delCFTR-HRP), doxycycline-inducible
Nature of the experiment: Cell Surface Expression-Horse Radish Peroxidase (CSE-HRP) Assay.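 On EC50 (with co-corrector): co-corrector chromenyl benzoic acid corrector at 2 or 3 µM.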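 On Maximum % activity (without co-corrector): % of on-plate positive control chromenyl benzoic acid corrector at 2 or 3 µM.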 It counts as cell-based. The following applies: for Maximum % activity (with co-corrector) / Emax: maximum at any tested concentration; for Emax: read-out: Maximum % activity (without co-corrector). A digest of the protocol: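 Corrector compounds were given as 8-point 3-fold series from 20 or 30 μM, with or without a 2 μM co-corrector, for 18-24 h at 33 °C. Surface HRP was read by luminol luminescence as % of positive control; variable-Hill-slope sigmoidal fitting gave EC50 from triplicate plates.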

The mark [1] stands for this setting: test compound alone, without co-corrector, read-out: EC50 (without co-corrector).
[2] abbreviates: with co-corrector, read-out: EC50 (with co-corrector).
[3] abbreviates: test compound with co-corrector.
Where [4] appears, read: test compound without co-corrector.
Where [5] appears, read: test compound with co-corrector, read-out: EC50 (with co-corrector).
Setting [6] is: test compound without co-corrector, read-out: EC50 (without co-corrector).

T1 sequence (P13569 with tags, fused parts or gaps DEL508-508): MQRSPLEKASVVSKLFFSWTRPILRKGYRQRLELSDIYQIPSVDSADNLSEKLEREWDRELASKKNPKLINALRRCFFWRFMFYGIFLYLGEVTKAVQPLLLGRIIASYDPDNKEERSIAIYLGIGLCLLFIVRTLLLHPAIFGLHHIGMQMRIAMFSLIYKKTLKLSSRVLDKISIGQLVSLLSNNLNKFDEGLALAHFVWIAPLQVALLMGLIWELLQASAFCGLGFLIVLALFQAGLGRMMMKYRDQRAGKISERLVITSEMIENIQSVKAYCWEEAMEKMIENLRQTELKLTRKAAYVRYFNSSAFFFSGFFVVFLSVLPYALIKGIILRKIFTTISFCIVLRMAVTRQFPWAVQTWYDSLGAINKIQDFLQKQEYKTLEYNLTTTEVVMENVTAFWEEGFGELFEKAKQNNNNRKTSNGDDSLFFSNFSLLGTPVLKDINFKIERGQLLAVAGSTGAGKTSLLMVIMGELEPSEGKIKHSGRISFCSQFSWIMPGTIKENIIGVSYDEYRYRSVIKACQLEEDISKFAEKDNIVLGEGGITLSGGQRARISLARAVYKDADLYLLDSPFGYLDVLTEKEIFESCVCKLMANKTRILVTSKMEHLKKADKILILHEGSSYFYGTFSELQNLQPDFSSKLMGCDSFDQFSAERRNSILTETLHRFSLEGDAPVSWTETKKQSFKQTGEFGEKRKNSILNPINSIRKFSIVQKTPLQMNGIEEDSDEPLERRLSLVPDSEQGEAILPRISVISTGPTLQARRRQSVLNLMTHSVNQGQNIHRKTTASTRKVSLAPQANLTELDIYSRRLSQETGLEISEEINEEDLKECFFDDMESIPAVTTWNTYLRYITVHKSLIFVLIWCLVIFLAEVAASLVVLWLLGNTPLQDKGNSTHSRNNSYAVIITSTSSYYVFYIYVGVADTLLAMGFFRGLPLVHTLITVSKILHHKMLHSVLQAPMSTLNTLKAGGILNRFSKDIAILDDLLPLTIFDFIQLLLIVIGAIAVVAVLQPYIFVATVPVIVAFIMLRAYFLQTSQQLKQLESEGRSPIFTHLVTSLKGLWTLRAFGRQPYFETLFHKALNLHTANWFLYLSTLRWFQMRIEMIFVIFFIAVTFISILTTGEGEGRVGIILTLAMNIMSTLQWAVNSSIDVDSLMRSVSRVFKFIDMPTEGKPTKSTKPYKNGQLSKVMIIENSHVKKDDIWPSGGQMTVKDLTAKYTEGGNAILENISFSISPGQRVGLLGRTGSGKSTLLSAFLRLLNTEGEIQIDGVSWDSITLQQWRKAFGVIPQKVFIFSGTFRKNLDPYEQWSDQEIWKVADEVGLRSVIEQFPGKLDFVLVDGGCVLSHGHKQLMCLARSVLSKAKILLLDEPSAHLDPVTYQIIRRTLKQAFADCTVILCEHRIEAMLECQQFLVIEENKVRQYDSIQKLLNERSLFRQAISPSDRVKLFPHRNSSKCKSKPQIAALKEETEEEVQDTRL

On to `Cc1cnc(OCC(C)C)c(C2(C(=O)NS(=O)(=O)c3cccc4[nH]ncc34)CC2)c1` [Example III-130, N-(1H-indazole-4-sulfonyl)-1-[5-methyl-2-(2-methylpropoxy)pyridin-3-yl]cyclopropane-1-carboxamide], for which the EC50 under setting [1] fell in the range of 3 to 10 µM and the concentration giving a half-maximal response (EC50) under setting [2] is < 3 µM. Moreover, the “Maximum % activity (with co-corrector)” value (with co-corrector) was “+++ (≥350)”. For the same molecule, the Emax (without co-corrector) was > 150%.
Taken in the same sequence, the figures for `Cc1cnc(OC(C)C)c(C2(C(=O)NS(=O)(=O)c3cccc4[nH]ncc34)CC2)c1` [Example III-131, N-(1H-indazole-4-sulfonyl)-1-{5-methyl-2-[(propan-2-yl)oxy]pyridin-3-yl}cyclopropane-1-carboxamide] were 3 to 10 µM, 3 to 10 µM, “+++ (≥350)” and > 150%.
On to `CCc1cccc(OC)c1C1(C(=O)NS(=O)(=O)c2cccc3[nH]ncc23)CC1` [Example III-132, 1-(2-ethyl-6-methoxyphenyl)-N-(lH-indazole-4-sulfonyl)cyclopropane-1-carboxamide], for which the concentration giving a half-maximal response (EC50) was < 3 µM under setting [1] and < 3 µM under setting [2]. In addition, where the note is “with co-corrector”, the “Maximum % activity (with co-corrector)” value is listed as “+++ (≥350)”. The Emax (without co-corrector) is > 150%.
In the case of `CCc1cccc(OC)c1C1(C(=O)NS(=O)(=O)c2cccc3nc(C)ccc23)CC1` [Example III-133, 1-(2-ethyl-6-methoxyphenyl)-N-(2-methylquinoline-5-sulfonyl)cyclopropane-1-carboxamide], the EC50 by setting is: under setting [1], < 3 µM; under setting [2], < 3 µM. In addition, the “Maximum % activity (with co-corrector)” value (with co-corrector) is reported as “+++ (≥350)”. In addition, for the setting “without co-corrector”, the Emax is > 150%.
On to `CCOc1ccc(C)cc1C1(C(=O)NS(=O)(=O)c2cccc3nc(N(C)C)ccc23)CC1` [Example III-134, N-[2-(dimethylamino)quinoline-5-sulfonyl]-1-(2-ethoxy-5-methylphenyl)cyclopropane-1-carboxamide], for which the EC50 runs as follows: under setting [1], < 3 µM; under setting [2], < 3 µM. The “Maximum % activity (with co-corrector)” value (with co-corrector) is “+++ (≥350)”. In addition, the Emax (without co-corrector) is > 150%.
As to `COc1ncc(C2(C(=O)NS(=O)(=O)c3cccc4ccccc34)CC2)c(OC)n1` [GII-1, 1-(2,4-dimethoxypyrimidin-5-yl)-N-(naphthalene-1-sulfonyl)cyclopropane-1-carboxamide], under setting [3], the “EC50 (with co-corrector)” value is “++^a”; the “Maximum % activity (with co-corrector)” value was “++ (≥150 and <350)”. Further, under setting [4], the “EC50 (without co-corrector)” value is listed as “++^a” and the Emax was < 50%.
Consider `CC(C)Oc1ncccc1C1(C(=O)NS(=O)(=O)c2cccc3ccccc23)CC1` [GII-2, N-(naphthalene-1-sulfonyl)-1-{2-[(propan-2-yl)oxy]pyridin-3-yl}cyclopropane-1-carboxamide], for which, under setting [3], the “Maximum % activity (with co-corrector)” value is “++ (≥150 and <350)”. For the same molecule, the concentration giving a half-maximal response (EC50) under setting [5] is 3 to 10 µM and the EC50 under setting [6] was 3 to 10 µM. Also, under setting [4], the Emax lay within 50 to 150%.
Take `CC(C)Oc1ncccc1C1(C(=O)NS(=O)(=O)c2cccc3ncccc23)CC1` [GII-3, 1-{2-[(propan-2-yl)oxy]pyridin-3-yl}-N-(quinoline-5-sulfonyl)cyclopropane-1-carboxamide]: under setting [3], the “Maximum % activity (with co-corrector)” value is “++ (≥150 and <350)”. For the same molecule, the EC50 under setting [5] fell in the range of 3 to 10 µM and the EC50 under setting [6] fell in the range of 3 to 10 µM. Besides, the Emax under setting [4] was in the range of 50 to 150%.
Consider `CC(C)Oc1ncccc1C1(C(=O)NS(=O)(=O)c2cccc3c2CCCN3)CC1` [GII-4, 1-{2-[(propan-2-yl)oxy]pyridin-3-yl}-N-(1,2,3,4-tetrahydroquinoline-5-sulfonyl)cyclopropane-1-carboxamide], for which the “Maximum % activity (with co-corrector)” value under setting [3] was “++ (≥150 and <350)”. Further, the EC50 is, setting by setting: under setting [5], 3 to 10 µM; under setting [6], 3 to 10 µM. For the same molecule, under setting [4], the Emax is 50 to 150%.
